Literature values in US12396965B2, “Putrescine topical barrier formulation” (VIVIER CANADA INC., priority 2017, dated 2025).

Columns and labels:
[1] = tested on: epidermis of eroded skin; settings: animals and human, topical
[2] = target: fibroblast tissue transglutaminase (Homo sapiens, UniProt P21980); settings: in vitro and in vivo; topical; compared to controls
fibroblast tissue transglutaminase, sequence (P21980 whole entry): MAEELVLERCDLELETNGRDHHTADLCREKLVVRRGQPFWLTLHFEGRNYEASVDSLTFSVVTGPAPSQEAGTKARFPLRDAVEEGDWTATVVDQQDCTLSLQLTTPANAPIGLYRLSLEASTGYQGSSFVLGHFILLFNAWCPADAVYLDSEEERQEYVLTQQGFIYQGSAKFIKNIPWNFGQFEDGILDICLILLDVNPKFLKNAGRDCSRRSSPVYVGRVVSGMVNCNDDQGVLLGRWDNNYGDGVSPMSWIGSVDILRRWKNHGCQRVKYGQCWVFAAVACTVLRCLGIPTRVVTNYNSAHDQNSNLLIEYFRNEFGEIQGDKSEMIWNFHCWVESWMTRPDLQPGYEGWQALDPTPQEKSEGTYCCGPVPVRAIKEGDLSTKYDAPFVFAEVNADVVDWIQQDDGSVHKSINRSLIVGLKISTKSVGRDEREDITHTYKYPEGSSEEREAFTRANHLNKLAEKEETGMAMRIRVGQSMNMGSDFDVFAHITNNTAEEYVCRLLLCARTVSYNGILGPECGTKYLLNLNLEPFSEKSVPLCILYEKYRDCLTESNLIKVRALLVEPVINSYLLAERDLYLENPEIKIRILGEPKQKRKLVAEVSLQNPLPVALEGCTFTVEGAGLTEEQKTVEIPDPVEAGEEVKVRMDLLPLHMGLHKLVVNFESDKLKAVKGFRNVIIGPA

collagen cross-linking [2]: reduce collagen cross-linking
SMILES: NCCCCN [Putrescine, 1,4-diaminobutane]
barrier function of the epidermis and thickness of the stratum lucidum / inner strata of human epidermis [1]: increasing its barrier function as well as the thickness of the stratum lucidum
